For experiment [1], the target named is D(2) dopamine receptor (Homo sapiens, UniProt P14416). Nature of the experiment: Tested for the binding constant against cloned human Dopamine receptor D2L in HEK cells by displacing [3H]spiperone. In kind it is cell-based, HEK293.
Experiment [2] deals with D(3) dopamine receptor (Homo sapiens, UniProt P35462). Nature of the experiment: Tested for the binding constant against cloned human Dopamine receptor D3 in HEK cells by displacing [3H]spiperone. In kind it is cell-based, HEK293.

Molecules are shown by their SMILES.

Chain of D(2) dopamine receptor (P14416 whole entry): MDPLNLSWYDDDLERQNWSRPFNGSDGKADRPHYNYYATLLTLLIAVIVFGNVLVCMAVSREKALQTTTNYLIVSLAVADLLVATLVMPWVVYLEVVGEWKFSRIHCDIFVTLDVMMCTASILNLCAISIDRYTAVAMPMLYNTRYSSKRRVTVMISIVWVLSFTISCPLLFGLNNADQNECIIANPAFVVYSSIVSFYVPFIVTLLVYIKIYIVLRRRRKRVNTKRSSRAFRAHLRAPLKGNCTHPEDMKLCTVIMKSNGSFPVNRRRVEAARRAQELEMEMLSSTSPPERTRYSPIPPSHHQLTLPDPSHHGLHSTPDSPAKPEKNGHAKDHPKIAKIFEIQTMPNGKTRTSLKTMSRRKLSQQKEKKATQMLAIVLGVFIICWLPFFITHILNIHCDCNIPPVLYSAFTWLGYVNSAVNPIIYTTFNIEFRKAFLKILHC
Chain of D(3) dopamine receptor (P35462 whole entry): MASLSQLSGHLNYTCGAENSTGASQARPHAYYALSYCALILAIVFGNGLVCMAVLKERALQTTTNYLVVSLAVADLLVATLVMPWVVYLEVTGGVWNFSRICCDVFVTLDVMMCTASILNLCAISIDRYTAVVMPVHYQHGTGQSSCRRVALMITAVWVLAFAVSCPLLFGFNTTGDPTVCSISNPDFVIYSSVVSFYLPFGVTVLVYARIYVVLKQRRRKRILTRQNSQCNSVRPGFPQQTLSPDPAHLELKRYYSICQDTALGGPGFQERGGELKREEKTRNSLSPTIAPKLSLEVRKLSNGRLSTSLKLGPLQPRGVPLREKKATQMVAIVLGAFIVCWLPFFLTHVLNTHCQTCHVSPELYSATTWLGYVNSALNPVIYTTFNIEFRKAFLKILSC

Regarding `CCCN(CCN1CCN(c2cccc(Cl)c2Cl)CC1)C1CCc2ccc(O)cc2C1` (stereo not drawn), the Ki came to 27.4 nM in experiment [1] and 1.13 nM in experiment [2].
For `O=C(NCCCCN(CCCN1CCN(c2ccccc2)CC1)C1CCc2ccc(O)cc2C1)c1ccccc1` (stereo not drawn), the Ki came to 782 nM in experiment [1] and 756 nM in experiment [2].
Taken in the same sequence, the figures for `N#CCCCN(CCCN1CCN(c2ccccc2)CC1)C1CCc2ccc(O)cc2C1` (stereo not drawn) were 622 nM and 50.2 nM.
Taken in the same sequence, the figures for `O=C(NCCN(CCCN1CCN(c2ccccc2)CC1)C1CCc2ccc(O)cc2C1)c1ccccc1` (stereo not drawn) were 354 nM and 55.7 nM.

What is called Ki is the dissociation constant of the complex between target and ligand, obtained from inhibition or displacement. Read a low Ki as a stronger hold on the target.

The record behind these values is ChEMBL document CHEMBL1135449, “A novel series of hybrid compounds derived by combining 2-aminotetralin and piperazine fragments: binding activity at D2 and D3 receptors” (Bioorg Med Chem Lett, 2002).
